Data published in patent US20210170033A1, “NOVEL CONJUGATES OF A PHARMACEUTICAL AGENT AND A MOIETY CAPABLE OF BINDING TO A GLUCOSE SENSING PROTEIN” (SANOFI, priority 2017, published 2021).
pIC50: −log10 of the molar value.

Tested on: A2780 cells
Assay: Deoxy-glucose uptake assay in A2780 cells (14C 2-deoxy-D-glucose transport)
Format: cell-based
Conditions: Homo sapiens, 20 min; inhibition of 14C 2-deoxy-D-glucose transport into A2780 cells; 20 min compound incubation; read-out: IC50
Procedure: 1. Deoxy-Glucose Uptake Assay in A2780 Cells:
For measurement of ^14C 2-deoxy-D-glucose transport into A2780 cells, cells were seeded in 96-well plates (Cytostar-T Plates Perkin Elmer, 70,000 cells/180 μl/well) in medium complete (RPMI1640+Glutamax (Life technologies #61870)) and grown for 48 hours. After 48 h, cells were washed once with 180 μL KRB (Krebs Ringer Bicarbonate) buffer, and stimulated in a dose dependent manner by adding 10 μL of test compound dilution 0-1.1 mM (11 times higher concentration than final) or 10 μL of 1.1 mM Cytochalasin B solution as negative control, to 90 μL KRB buffer and incubated for 20 minutes. After compound stimulation, the transport of ^14C 2-deoxy-D-glucose was started by adding of 50 μL 2-^14C[U] 2-deoxy-D-glucose solution (109.1 μM 2-deoxy-D-glucose cold and 33 μM 2-^14C[U] 2-deoxy-D-glucose 0.1 μCi/well) for 20 minutes. Transport was stopped by adding 50 μL/well 96 μM Cytochalasin B solution. Plates were measured in a 96-well Wallac Microbeta device. The cpm (counts per minute) values were used to determine the % inhibition values for the test compounds within each experiment. In a first step, the mean background value generated by Cytochalasin B (a potent glucose transporter inhibitor) treated cells, was subtracted from the mean values of the treated cells. All mean values were obtained from triplicates. For %-Inhibition results, the mean value of the untreated cells (just KRB) was set as 100%. All other mean values were calculated to this relation. IC50 were obtained by regression analysis of dose response curve with 7 or 14 concentrations, respectively, for each compound.

SMILES	pIC50
COc1cc(OCc2sc(C)nc2C(F)(F)F)c(Cl)cc1C(=O)O[C@H]1[C@@H](OC)O[C@H](CO)[C@@H](O)[C@@H]1O [Example 478]	6.62
COC(=O)[C@H](CCCCNC(=O)CCCCCCCCC(=O)Nc1cccc(COc2c(Cl)cc(C(=O)N[C@H]3[C@@H](OC)O[C@H](CO)[C@@H](O)[C@@H]3O)c(C)c2Cl)c1)NC(=O)OC(C)(C)C [Example 465]	4.30
CO[C@H]1O[C@H](CO)[C@@H](O)[C@H](O)[C@H]1OC(=O)c1cc(Cl)c(OCc2cccc(CNC(=O)[C@H](CC(C)C)NC(=O)OC(C)(C)C)c2)c(Cl)c1C [Example 278]	5.80
Cc1ccc(OCc2ccccc2)cc1C(=O)OC[C@H]1OC(O)[C@H](O)[C@@H](O)[C@H]1O (stereo partly drawn) [Example 102]	4.86
CO[C@H]1O[C@H](CO)[C@@H](O)[C@H](O)[C@H]1OC(=O)c1cc(Cl)c(OCc2cccc(CNC(=O)[C@H](CC(C)C)N(C)C(=O)OC(C)(C)C)c2)c(Cl)c1C [Example 279]	5.47
COC(=O)c1cc(COc2c(Cl)cc(C(=O)O[C@H]3[C@@H](OC)O[C@H](CO)[C@@H](O)[C@@H]3O)c(C)c2Cl)ccc1Cl [Example 262]	6.00
COc1cc(OCc2cccc(CNC(=O)CCC(=O)NCCCCCC(=O)OC(C)(C)C)c2)c(Cl)cc1C(=O)O[C@H]1[C@@H](OC)O[C@H](CO)[C@@H](O)[C@@H]1O [Example 390]	5.15
CO[C@H]1O[C@H](CO)[C@@H](O)[C@H](O)[C@H]1NC(=O)c1cc(Cl)c(OCc2cccc(CNC(=O)CCCC(=O)OC(C)(C)C)c2)c(Cl)c1C [Example 450]	4.59
C#CCCCn1c(COc2c(Cl)cc(C(=O)O[C@H]3[C@@H](OC)O[C@H](CO)[C@@H](O)[C@@H]3O)cc2OC)nc2ccccc21 [Example 186]	5.22
COc1cc(OCc2cccc(NC(=O)CCCCCCCCC(=O)NCCCCCC(=O)OC(C)(C)C)c2)c(Cl)cc1C(=O)N[C@H]1[C@@H](OC)O[C@H](CO)[C@@H](O)[C@@H]1O [Example 467]	4.55
COC(=O)[C@H](CCCCNC(=O)CCCC(=O)NCc1cccc(COc2cc(OC)c(C(=O)N[C@H]3[C@@H](OC)O[C@H](CO)[C@@H](O)[C@@H]3O)cc2Cl)c1)NC(=O)OC(C)(C)C [Example 436]	4.47
C#CCCCn1c(COc2c(Cl)cc(C(=O)O[C@@H]3[C@@H](O)[C@@H](OC)O[C@H](CO)[C@H]3O)c(C)c2Cl)nc2ccccc21 [Example 275]	7.00
COc1cc(OCc2cnc(-c3ccc(Cl)cc3)o2)c(Cl)cc1C(=O)O[C@H]1[C@@H](OC)O[C@H](CO)[C@@H](O)[C@@H]1O [Example 475]	> 7.00
COc1ncc(COc2c(Cl)c(C)c(C(=O)O[C@H]3[C@@H](OC)O[C@H](CO)[C@@H](O)[C@@H]3O)c(OC)c2Cl)cc1Cl [Example 126]	5.25
CO[C@@H]1O[C@H](COC(=O)c2cc(C)c(OCc3ccccc3)c(C)c2)[C@@H](O)[C@H](O)[C@H]1O [Example 19]	4.20
COc1cc(OCc2ccc(/C=C/C(=O)NCCCCCC(=O)OC(C)(C)C)cc2)c(Cl)cc1C(=O)N[C@H]1[C@@H](OC)O[C@H](CO)[C@@H](O)[C@@H]1O (relative stereo) [Example 392]	5.74
COc1cc(OCc2cccc(NC(=O)CCCCCCC(=O)NCCCCCC(=O)OC(C)(C)C)c2)c(Cl)cc1C(=O)N[C@H]1[C@@H](OC)O[C@H](CO)[C@@H](O)[C@@H]1O [Example 466]	5.47
CO[C@H]1O[C@H](CO)[C@@H](O)[C@H](O)[C@H]1NC(=O)c1cc(Cl)c(OCc2cn3c(C)cccc3n2)c(Cl)c1C [Example 256]	5.96
COC(=O)/C=C/c1ccc(COc2c(Cl)cc(C(=O)O[C@H]3[C@@H](OC)O[C@H](CO)[C@@H](O)[C@@H]3O)c(C)c2Cl)cc1 [Example 317]	4.83

SMILES	pIC50
COc1cc(OCc2cccc(OCCCCCC(=O)OC(C)(C)C)c2)c(Cl)cc1C(=O)N[C@H]1[C@@H](OC)O[C@H](CO)[C@@H](O)[C@@H]1O [Example 394]	5.40
COc1cc(OCc2cccc(CNC(=O)CCCCCCC(=O)O)c2)c(Cl)cc1C(=O)O[C@H]1[C@@H](OC)O[C@H](CO)[C@@H](O)[C@@H]1O [Example 408]	4.35
CO[C@H]1O[C@H](CO)[C@@H](O)[C@H](O)[C@H]1NC(=O)c1cc(Cl)c(OCc2ccccc2)cc1C [Example 297]	5.66
CCOC(=O)c1nnsc1COc1c(Cl)cc(C(=O)N[C@H]2[C@@H](OC)O[C@H](CO)[C@@H](O)[C@@H]2O)c(C)c1Cl [Example 283]	5.17
CO[C@H]1O[C@H](CO)[C@@H](O)[C@H](O)[C@H]1OC(=O)c1cc(Cl)c(OCCc2ccc(C)cc2)c(Cl)c1C [Example 243]	4.56
COc1cccc(CCOc2c(Cl)cc(C(=O)O[C@H]3[C@@H](OC)O[C@H](CO)[C@@H](O)[C@@H]3O)c(C)c2Cl)c1 [Example 241]	4.61
COc1cc(C(=O)OC[C@H]2O[C@@H](OC)[C@H](O)[C@@H](O)[C@@H]2O)cc(Cl)c1OCc1nc2ccccc2n1C(C)C [Example 151]	4.73
COc1cc(C(=O)O[C@H]2[C@@H](OC)O[C@H](CO)[C@@H](O)[C@@H]2O)cc(Cl)c1OCc1cccc(OCC(=O)OC(C)(C)C)c1 [Example 276]	4.84
COc1cc(OCc2cccc(OCCCCCC(=O)O)c2)c(Cl)cc1C(=O)N[C@H]1[C@@H](OC)O[C@H](CO)[C@@H](O)[C@@H]1O [Example 398]	4.07
CO[C@H]1O[C@H](CO)[C@@H](O)[C@H](O)[C@H]1OC(=O)c1cc(Cl)c(OCc2cccc(CNCCCC(=O)OC(C)(C)C)c2)c(Cl)c1C [Example 348]	4.51
CO[C@H]1O[C@H](CO)[C@@H](O)[C@H](O)[C@H]1OC(=O)c1cc(Cl)c(OCc2ccccc2)cc1C [Example 300]	5.16
COc1cc(OCc2cccc(NC(=O)CCCC(=O)OC(C)(C)C)c2)c(Cl)cc1C(=O)N[C@H]1[C@@H](OC)O[C@H](CO)[C@@H](O)[C@@H]1O [Example 429]	5.54
COc1cc(OCc2ccccc2)ccc1C(=O)N[C@H]1[C@@H](OC)O[C@H](CO)[C@@H](O)[C@@H]1O [Example 358]	4.04
COc1cc(OCc2coc(-c3ccc(C(F)(F)F)cc3)n2)c(Cl)cc1C(=O)O[C@H]1[C@@H](OC)O[C@H](CO)[C@@H](O)[C@@H]1O [Example 473]	> 7.00
COC(=O)CCCCCNC(=O)c1cccc(COc2c(Cl)cc(C(=O)N[C@H]3[C@@H](OC)O[C@H](CO)[C@@H](O)[C@@H]3O)c(C)c2Cl)c1 [Example 323]	4.55
COc1ncc(COc2c(Cl)cc(C(=O)O[C@H]3[C@@H](OC)O[C@H](CO)[C@@H](O)[C@@H]3O)c(C)c2Cl)cc1Cl [Example 215]	5.96
COC(=O)COc1ccc(COc2cc(OC)c(C(=O)N[C@H]3[C@@H](OC)O[C@H](CO)[C@@H](O)[C@@H]3O)cc2Cl)cc1 (relative stereo) [Example 386]	5.28
C#CCCC(=O)Nc1cccc(COc2c(Cl)cc(C(=O)O[C@@H]3C(O)[C@H](O)[C@@H](CO)O[C@@H]3OC)cc2OC)c1 (stereo partly drawn) [Example 78]	4.70
COc1cc(OCc2cccc(CNC(=O)CCCCCCCCC(=O)OC(C)(C)C)c2)c(Cl)cc1C(=O)N[C@H]1[C@@H](OC)O[C@H](CO)[C@@H](O)[C@@H]1O [Example 427]	4.22

Same assay, conditions: Homo sapiens, A2780, 20 min

SMILES	pIC50
COc1cc(C(=O)OC[C@H]2O[C@@H](OCC[Si](C)(C)C)[C@H](O)[C@@H](O)[C@@H]2O)cc(Cl)c1OCCc1ccccc1 [Example 28]	4.08
